Results reported in US20240315937A1, “STABLE EFFICIENT COSMETIC PREPARATIONS” (YISSUM RESEARCH DEVELOPMENT COMPANY OF THE HEBREW …, priority 2021, published 2024).

Assays:
[1] = Force degradation of 2% CBD cream (CBD assay by HPLC); type: physicochemical; settings: vs untreated reference
Description: Samples were prepared by the following method: • 1. 200 mg 2% CBD cream vs. Blank (7 mL vials), • 2. Subjected to Oxidation/Base/Acid/Heat/UV conditions (see below), • 3. Mixing with 4 mL DMSO, • 4. Sonication, 30 min, • 5. Shaking, 1 h, • 6. Centrifugation at 4000 rpm, 5 min, • 7. Filtration by 0.22 μm PTFE, • 8. HPLC sample preparation and HPLC protocol as above.
Samples were subjected to the following force degradation conditions and tested for CBD content: • Heat: 200 mg cream was heated at 100° C. (oil bath) for 6 h; • UV: 200 mg cream was exposed to the sun for 3 h; • Acidic conditions: 200 mg cream was treated with 150 μl 9M HCl (aq.) for 1 h and neutralized with 150 μl 9M NaOH; • Basic conditions: […] μl 1M HCl; • Oxidation: 200 mg of cream was treated with 1 ml 30% H2O2 for 2 h; CBD assay % was calculated according to the untreated reference.

[2] = Dissolution of CBD in oil solvents of the creams; type: physicochemical; settings: CBD 2%; medium-chain triglycerides (MCT) and sesame oil
Description: The main tested parameters included the following: • 1. Reduction of ethanol: Ethanol is generally considered a co-solvent of CBD. The concentration of ethanol was reduced from initial to final preparations, starting from 3.6% and 0.9% to no ethanol in the final preparations, where CBD was dissolved directly in sesame oil (see for example CBD #34 in Table 13 below). • 2. Selection of an antioxidant: The selected antioxidants were BHT and propyl gallate, in various combinations and proportions. […] Due to this property, the final preparations contained 0.05% BHT (see Table 13, CBD #34). • 3. Selection of an oil: Oil is a known solvent for CBD. Various oils were tested as optional solvents in the cosmetic creams of the invention. […] Both MCT and sesame oil have antioxidants properties (see Table 13, CBD #34).

With C=C(C)[C@@H]1CCC(C)=C[C@H]1c1c(O)cc(CCCCC)cc1O [CBD, cannabidiol] the CBD assay ([1]; Acid: 200 mg 2% CBD cream, 150 μl 9M HCl, 1 h) was 67.7%, the CBD assay ([1]; Base: 200 mg 2% CBD cream, 200 μl 1M NaOH, time point 1 h) was 81.9% and the CBD assay ([1]; Heat: 200 mg 2% CBD cream at 100° C. (oil bath), 6 h) was 87.8%. For the same molecule, the CBD assay ([1]; Oxidation: 200 mg 2% CBD cream, 1 ml 30% H2O2, 2 h) was 63.5%, the CBD assay ([1]; UV: 200 mg 2% CBD cream exposed to the sun, 3 h) was 98.4% and the “dissolution of CBD in oil solvent” value [2] was “complete dissolution”.
